For one series, the target named is T1, ARAF^SSDD (Homo sapiens, UniProt P10398, G300S/Y301D/Y302D).
T1 sequence (P10398 274-606 G300S/Y301D/Y302D): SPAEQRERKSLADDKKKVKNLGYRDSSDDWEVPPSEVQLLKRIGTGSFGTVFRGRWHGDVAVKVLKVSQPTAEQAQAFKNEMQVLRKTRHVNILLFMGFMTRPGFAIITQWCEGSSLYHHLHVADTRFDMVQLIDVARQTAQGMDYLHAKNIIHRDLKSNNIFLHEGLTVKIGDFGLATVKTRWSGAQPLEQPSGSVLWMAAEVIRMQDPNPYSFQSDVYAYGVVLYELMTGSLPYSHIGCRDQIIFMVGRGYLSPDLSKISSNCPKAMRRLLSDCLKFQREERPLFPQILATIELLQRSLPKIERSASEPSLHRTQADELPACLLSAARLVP
In words: TR-FRET kinase inhibition assay (MEK1 activation loop phosphorylation), ARAF^SSDD dimer. The note with it: for Hill slope: four-parameter fit, ARAF^SSDD 10 nM, ATP 200 μM.

Details of series [1]: method as in PMID 28082416, PMID 25792358. The note with it: cited from earlier work.
For another series, the system named is CRAF. On the set-up: method as in PMID 33355204. As to conditions: purified CRAF; reaction conditions not provided; cited from earlier work.
The target of a further series is CRAF^WT (Homo sapiens, UniProt P04049). In words: TR-FRET kinase inhibition assay (MEK1 activation loop phosphorylation), CRAF^WT dimer.
In another series the target is BRAF^V600E (Homo sapiens, UniProt P15056, V600E). Nature of the series: TR-FRET kinase inhibition assay (MEK1 activation loop phosphorylation), BRAF^V600E monomer.
For another series, the target named is BRAF^WT (Homo sapiens, UniProt P15056). In words: TR-FRET kinase inhibition assay (MEK1 activation loop phosphorylation), BRAF^WT dimer.
A further series deals with CRAF^SSDD (Homo sapiens, UniProt P04049, Y340D/Y341D). In words: TR-FRET kinase inhibition assay (MEK1 activation loop phosphorylation), CRAF^SSDD dimer.

The structures appear in SMILES notation. Where “and” joins values, the source holds several entries; their conditions need not be identical. Equal values may be shown once.

Consider `C[C@@H](NC(=O)c1ncnc(N)c1Cl)c1ncc(C(=O)Nc2cc(C(F)(F)F)c(Cl)cn2)s1` [Tovorafenib], for which, on ARAF^SSDD, the IC50 is more than 3000 nM, the Ki is more than 40 nM and the Hill slope is −1.12 ± 0.42. Moreover, the “Inhibition of ARAF^SSDD at highest inhibitor concentration” value at ARAF^SSDD (10 μM, the highest inhibitor concentration achievable in this assay) was “did not completely inhibit”. Also, the Brain penetration entry in series [1] is recorded as “brain-penetrant”.

On to `Cc1ccc(NC(=O)c2ccnc(C(F)(F)F)c2)cc1-c1cc(OCCO)nc(N2CCOCC2)c1` [Naporafenib, N-(3-(2-(2-Hydroxyethoxy)-6-morpholinopyridin-4-yl)-4-methylphenyl)-2-(trifluoromethyl)isonicotinamide], for which the IC50 is 0.07 nM in the series on CRAF; 3.7 nM and 3.66 nM against CRAF^WT (IC50, CRAF^WT 4 nM, ATP 200 μM, WT MEK1 substrate 250 nM, mean ± SD); 414 ± 186 nM against ARAF^SSDD; 49.2 ± 3 nM against BRAF^V600E; 13.4 ± 0.3 nM at BRAF^WT; 3.64 ± 0.36 nM at CRAF^SSDD. Further, the Ki is 0.04 ± 0.03 nM on CRAF^WT; 5.71 ± 2.97 nM at ARAF^SSDD; 2.04 ± 0.83 nM at BRAF^V600E; 0.13 ± 0.08 nM at BRAF^WT; 0.01 ± 0.001 nM at CRAF^SSDD. For the same compound, the Hill slope on CRAF^WT (four-parameter fit, CRAF^WT 4 nM, ATP 200 μM) is listed as −2.57 ± 0.65; at ARAF^SSDD it was −0.78 ± 0.05; on BRAF^V600E (four-parameter fit, BRAF^V600E 1 nM, ATP 200 μM), −0.96 ± 0.09; at BRAF^WT (four-parameter fit, BRAF^WT 1 nM, ATP 200 μM) it was −2.73 ± 0.23; at CRAF^SSDD (four-parameter fit, CRAF^SSDD 1 nM, ATP 200 μM), −3.03 ± 0.73.

The values above are taken from article PMC10149214 (The Journal of Biological Chemistry, 2023).
